Reference: PubChem BioAssay (NCI)
Values joined by “and” are separate entries in the source; they are usually repeats but may differ in a detail not shown here. Equal entries are not always repeated.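 At the GI50, growth is halved. TGI: total growth inhibition.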

Assays:
Assay in all cases: inhibition of tumour cell growth, NCI panel, 384-well format
COLO 205 colon = system: COLO 205 colon
SK-OV-3 ovarian = system: SK-OV-3 ovarian
SF-268 CNS = system: SF-268 CNS
TK-10 renal = system: TK-10 renal
HT29 colon = system: HT29 colon
T-47D breast = system: T-47D breast
UACC-62 melanoma = system: UACC-62 melanoma
CAKI-1 renal = system: CAKI-1 renal
HOP-62 NSCLC = system: HOP-62 NSCLC
UACC-257 melanoma = system: UACC-257 melanoma
DU-145 prostate = system: DU-145 prostate
HS 578T breast = system: HS 578T breast
SNB-19 CNS = system: SNB-19 CNS
HL-60(TB) leukemia = system: HL-60(TB) leukemia
KM12 colon = system: KM12 colon
HOP-92 NSCLC = system: HOP-92 NSCLC
M14 melanoma = system: M14 melanoma
IGROV1 ovarian = system: IGROV1 ovarian
BT-549 breast = system: BT-549 breast
NCI-H226 lung = system: NCI-H226 lung
NCI/ADR-RES ovarian = system: NCI/ADR-RES ovarian
ACHN renal = system: ACHN renal
HCT-15 colon = system: HCT-15 colon
RPMI-8226 leukemia = system: RPMI-8226 leukemia
OVCAR-8 ovarian = system: OVCAR-8 ovarian
NCI-H460 NSCLC = system: NCI-H460 NSCLC
SK-MEL-28 melanoma = system: SK-MEL-28 melanoma
SF-539 CNS = system: SF-539 CNS
OVCAR-4 ovarian = system: OVCAR-4 ovarian
HCT-116 colon = system: HCT-116 colon
SF-295 CNS = system: SF-295 CNS
LOX IMVI melanoma = system: LOX IMVI melanoma
NCI-H23 lung = system: NCI-H23 lung
EKVX NSCLC = system: EKVX NSCLC
OVCAR-3 ovarian = system: OVCAR-3 ovarian
MOLT-4 leukemia = system: MOLT-4 leukemia
SNB-75 CNS = system: SNB-75 CNS
A498 renal = system: A498 renal
MDA-MB-468 breast = system: MDA-MB-468 breast
NCI-H522 lung = system: NCI-H522 lung
MCF7 breast = system: MCF7 breast
MALME-3M melanoma = system: MALME-3M melanoma
SN12C renal = system: SN12C renal
HCC-2998 colon = system: HCC-2998 colon
NCI-H322M lung = system: NCI-H322M lung
RXF 393 renal = system: RXF 393 renal
OVCAR-5 ovarian = system: OVCAR-5 ovarian
A549 NSCLC = system: A549 NSCLC
U251 glioblastoma = system: U251 glioblastoma
SK-MEL-5 melanoma = system: SK-MEL-5 melanoma
MDA-MB-435 melanoma = system: MDA-MB-435 melanoma
MDA-MB-231 breast = system: MDA-MB-231 breast
PC-3 prostate = system: PC-3 prostate
SR leukemia = system: SR leukemia
K-562 leukemia = system: K-562 leukemia
CCRF-CEM leukemia = system: CCRF-CEM leukemia

SMILES: CON(C)C(=O)N1N=C(c2cc(F)ccc2F)SC1(CCCN)c1ccccc1 (configuration not stated)
- GI50 (COLO 205 colon): < 0.01 µM
- TGI (COLO 205 colon): < 0.01 µM
- GI50 (SK-OV-3 ovarian): < 0.01 µM
- TGI (SK-OV-3 ovarian): 12.2 µM and 11.9 µM
- GI50 (SF-268 CNS): < 0.01 µM
- TGI (SF-268 CNS): 15.7 µM and 15.3 µM
- GI50 (TK-10 renal): 0.0117 µM
- TGI (TK-10 renal): 17.4 µM
- GI50 (HT29 colon): < 0.01 µM
- TGI (HT29 colon): 1.15 µM and 1.31 µM
- GI50 (T-47D breast): 0.0138 µM and < 0.01 µM
- TGI (T-47D breast): 18.3 µM and 18.1 µM
- GI50 (UACC-62 melanoma): < 0.01 µM
- TGI (UACC-62 melanoma): 16.4 µM and 16.1 µM
- GI50 (CAKI-1 renal): 2.26 µM and 2.08 µM
- TGI (CAKI-1 renal): 19.2 µM and 19.3 µM
- GI50 (HOP-62 NSCLC): < 0.01 µM
- TGI (HOP-62 NSCLC): 14.5 µM and 13.8 µM
- GI50 (UACC-257 melanoma): < 0.01 µM
- TGI (UACC-257 melanoma): 2.29 µM and 2.47 µM
- GI50 (DU-145 prostate): < 0.01 µM
- TGI (DU-145 prostate): < 0.01 µM
- GI50 (HS 578T breast): < 0.01 µM
- TGI (HS 578T breast): < 0.01 µM
- GI50 (SNB-19 CNS): < 0.01 µM
- TGI (SNB-19 CNS): 11.7 µM and 7.12 µM
- GI50 (HL-60(TB) leukemia): < 0.01 µM
- TGI (HL-60(TB) leukemia): < 0.01 µM
- GI50 (KM12 colon): < 0.01 µM
- TGI (KM12 colon): 12.1 µM and 11.9 µM
- GI50 (HOP-92 NSCLC): 10.1 µM and 8.95 µM
- TGI (HOP-92 NSCLC): 21.8 µM and 21.6 µM
- GI50 (M14 melanoma): < 0.01 µM
- TGI (M14 melanoma): < 0.01 µM
- GI50 (IGROV1 ovarian): 1.84 µM and 1.13 µM
- TGI (IGROV1 ovarian): 18.8 µM and 14.7 µM
- GI50 (BT-549 breast): < 0.01 µM
- TGI (BT-549 breast): 11.9 µM and 11.1 µM
- GI50 (NCI-H226 lung): 10.2 µM and 2.24 µM
- TGI (NCI-H226 lung): 22 µM and 16.9 µM
- GI50 (NCI/ADR-RES ovarian): 0.116 µM and 0.0175 µM
- TGI (NCI/ADR-RES ovarian): 0.27 µM and 0.137 µM
- GI50 (ACHN renal): 11.2 µM and 1.63 µM
- TGI (ACHN renal): 23.3 µM and 19.6 µM
- GI50 (HCT-15 colon): < 0.01 µM
- TGI (HCT-15 colon): 11.7 µM
- GI50 (RPMI-8226 leukemia): < 0.01 µM
- TGI (RPMI-8226 leukemia): < 0.01 µM
- GI50 (OVCAR-8 ovarian): < 0.01 µM
- TGI (OVCAR-8 ovarian): 14.5 µM and 13.4 µM
- GI50 (NCI-H460 NSCLC): < 0.01 µM
- TGI (NCI-H460 NSCLC): < 0.01 µM
- GI50 (SK-MEL-28 melanoma): 2.38 µM and 11.6 µM
- TGI (SK-MEL-28 melanoma): 19.6 µM and 24 µM
- GI50 (SF-539 CNS): < 0.01 µM
- TGI (SF-539 CNS): 10.2 µM
- GI50 (OVCAR-4 ovarian): < 0.01 µM
- TGI (OVCAR-4 ovarian): 14 µM and 12.6 µM
- GI50 (HCT-116 colon): < 0.01 µM
- TGI (HCT-116 colon): 11.2 µM and 11.4 µM
- GI50 (SF-295 CNS): < 0.01 µM
- TGI (SF-295 CNS): 12.8 µM and 13.1 µM
- GI50 (LOX IMVI melanoma): < 0.01 µM
- TGI (LOX IMVI melanoma): 10.5 µM and 11.1 µM
- GI50 (NCI-H23 lung): < 0.01 µM
- TGI (NCI-H23 lung): 12.7 µM and 11.5 µM
- GI50 (EKVX NSCLC): < 0.01 µM
- TGI (EKVX NSCLC): 15.6 µM and 14.8 µM
- GI50 (OVCAR-3 ovarian): < 0.01 µM
- TGI (OVCAR-3 ovarian): < 0.01 µM
- GI50 (MOLT-4 leukemia): < 0.01 µM
- TGI (MOLT-4 leukemia): < 0.01 µM
- GI50 (SNB-75 CNS): < 0.01 µM
- TGI (SNB-75 CNS): 16 µM and 15.9 µM
- GI50 (A498 renal): < 0.01 µM
- TGI (A498 renal): 14.5 µM and 13.2 µM
- GI50 (MDA-MB-468 breast): < 0.01 µM
- TGI (MDA-MB-468 breast): < 0.01 µM
- GI50 (NCI-H522 lung): < 0.01 µM
- TGI (NCI-H522 lung): < 0.01 µM
- GI50 (MCF7 breast): < 0.01 µM
- TGI (MCF7 breast): 11.9 µM and 12.1 µM
- GI50 (MALME-3M melanoma): 1.19 µM and 1.26 µM
- TGI (MALME-3M melanoma): 3.53 µM and 11.8 µM
- GI50 (SN12C renal): < 0.01 µM
- TGI (SN12C renal): 14.7 µM and 16.6 µM
- GI50 (HCC-2998 colon): < 0.01 µM
- TGI (HCC-2998 colon): < 0.01 µM
- GI50 (NCI-H322M lung): < 0.01 µM
- TGI (NCI-H322M lung): 17.2 µM and 14.9 µM
- GI50 (RXF 393 renal): < 0.01 µM
- TGI (RXF 393 renal): 17.9 µM and 17.8 µM
- GI50 (OVCAR-5 ovarian): 0.0106 µM and < 0.01 µM
- TGI (OVCAR-5 ovarian): 0.0842 µM and < 0.01 µM
- GI50 (A549 NSCLC): < 0.01 µM
- TGI (A549 NSCLC): 18.6 µM and 18.7 µM
- GI50 (U251 glioblastoma): < 0.01 µM
- TGI (U251 glioblastoma): 10.9 µM and 11.2 µM
- GI50 (SK-MEL-5 melanoma): < 0.01 µM
- TGI (SK-MEL-5 melanoma): < 0.01 µM
- GI50 (MDA-MB-435 melanoma): < 0.01 µM
- TGI (MDA-MB-435 melanoma): < 0.01 µM
- GI50 (MDA-MB-231 breast): < 0.01 µM
- TGI (MDA-MB-231 breast): 13.8 µM and 15.4 µM
- GI50 (PC-3 prostate): < 0.01 µM
- TGI (PC-3 prostate): 15.3 µM and 12.8 µM
- GI50 (SR leukemia): < 0.01 µM
- TGI (SR leukemia): < 0.01 µM

SMILES: Nc1ncn(C2CC(O)C(CO)O2)c(=O)n1 (configuration not stated)
- GI50 (COLO 205 colon): 65.6 µM
- GI50 (HL-60(TB) leukemia): 0.629 µM
- GI50 (K-562 leukemia): 1.28 µM
- GI50 (ACHN renal): 7.84 µM
- GI50 (HCT-15 colon): > 31.2 µM
- GI50 (RPMI-8226 leukemia): 0.225 µM
- GI50 (OVCAR-8 ovarian): > 32.9 µM
- GI50 (NCI-H460 NSCLC): 1.98 µM
- GI50 (MOLT-4 leukemia): 0.0397 µM
- GI50 (CCRF-CEM leukemia): 0.706 µM
- GI50 (MDA-MB-468 breast): < 0.0183 µM
- TGI (MDA-MB-468 breast): 0.0532 µM
- GI50 (SK-MEL-5 melanoma): 0.705 µM
- GI50 (SR leukemia): 2.92 µM
